“And” between values parts separate entries of the source, which are not always exact repeats. Identical values can stand only once.
Columns and labels:
TMPRSS2 = TMPRSS2 (Homo sapiens, UniProt O15393); assay: biochemical; format: biochemical; details: Fig. 5b
human CTSL = biological target: T1, human CTSL (Homo sapiens, UniProt P07711); assay: FRET enzymatic inhibition assay of CTSL (IC50 measurement); format: biochemical
T1 construct: made in house

[1] = system: SARS-CoV-2-S pseudotyped virus Omicron BA.2.12.1; assay: microbe, parasite or virus in culture; format: cell-based

T1 sequence (P07711 114-333): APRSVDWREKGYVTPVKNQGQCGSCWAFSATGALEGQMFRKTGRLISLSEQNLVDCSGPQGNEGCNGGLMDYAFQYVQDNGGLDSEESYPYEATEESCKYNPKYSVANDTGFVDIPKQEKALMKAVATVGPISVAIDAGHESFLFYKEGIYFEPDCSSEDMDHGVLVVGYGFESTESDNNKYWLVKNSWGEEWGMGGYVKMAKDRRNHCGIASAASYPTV
TMPRSS2, sequence (O15393 256-492): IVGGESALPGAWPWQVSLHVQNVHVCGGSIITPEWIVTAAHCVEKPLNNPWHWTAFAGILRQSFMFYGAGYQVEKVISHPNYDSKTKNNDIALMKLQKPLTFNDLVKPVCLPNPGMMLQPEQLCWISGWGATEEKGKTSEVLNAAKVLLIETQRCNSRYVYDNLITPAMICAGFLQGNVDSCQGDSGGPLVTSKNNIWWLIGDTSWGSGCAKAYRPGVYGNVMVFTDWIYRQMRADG
TMPRSS2, sequence (O15393 other isoform, or with tags, fused parts or gaps): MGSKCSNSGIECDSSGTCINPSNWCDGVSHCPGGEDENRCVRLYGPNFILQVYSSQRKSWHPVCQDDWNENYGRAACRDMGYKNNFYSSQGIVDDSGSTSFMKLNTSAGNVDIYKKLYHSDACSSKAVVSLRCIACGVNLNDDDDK

With NC(N)=Nc1ccc(C(=O)OCCN2CCN(C(=O)N[C@@H](Cc3ccccc3)C(=O)N[C@H](/C=C/S(=O)(=O)c3ccccc3)CCc3ccccc3)CC2)cc1 [212-148] the “Inhibition: TMPRSS2” value (TMPRSS2; 212-148 976.562 nM) was 40.08% and 39.01% and 40.36%, the inhibition at 0.976562 µM (TMPRSS2; 212-148 976.562 nM) was 39.7% and the “Inhibition: TMPRSS2” value (TMPRSS2; 212-148 1953.12 nM) was 63.03% and 61.74% and 62.43%. For the same molecule, the inhibition at 1.95312 µM (TMPRSS2; 212-148 1953.12 nM) was 61.1%, the “Inhibition: TMPRSS2” value (TMPRSS2; 212-148 3906.25 nM) was 83.44% and 83.94% and 85.49% and the inhibition at 3.90625 µM (TMPRSS2; 212-148 3906.25 nM) was 83.6%. For the same molecule, the “Inhibition: TMPRSS2” value (TMPRSS2; 212-148 7812.5 nM) was 95.50% and 95.52% and 96.33%, the inhibition at 7.8125 µM (TMPRSS2; 212-148 7812.5 nM) was 94.8% and the “Inhibition: TMPRSS2” value (TMPRSS2; 212-148 15625 nM) was 98.35% and 96.17% and 99.57%. The inhibition at 15.625 µM (TMPRSS2; 212-148 15625 nM) was 97.8%, the “Inhibition: TMPRSS2” value (TMPRSS2; 212-148 31250 nM) was 98.24% and 98.70% and 100.24% and the inhibition at 31.25 µM (TMPRSS2; 212-148 31250 nM) was 97.8%. For the same molecule, the “Inhibition: TMPRSS2” value (TMPRSS2; 212-148 62500 nM) was 98.19% and 99.09% and 100.93%, the inhibition at 62.5 µM (TMPRSS2; 212-148 62500 nM) was 98% and the “Inhibition: TMPRSS2” value (TMPRSS2; 212-148 125000 nM) was 98.93% and 99.03% and 99.02%. The inhibition at 125 µM (TMPRSS2; 212-148 125000 nM) was 98.3%, the “Inhibition: TMPRSS2” value (TMPRSS2; 212-148 250000 nM) was 99.15% and 99.14% and 99.60% and the inhibition at 250 µM (TMPRSS2; 212-148 250000 nM) was 98.1%. The “Inhibition: TMPRSS2” value (TMPRSS2; 212-148 500000 nM) was 100.68% and 99.05% and 100.75%, the inhibition at 500 µM (TMPRSS2; 212-148 500000 nM) was 100% and the “Inhibition: TMPRSS2” value (TMPRSS2; 212-148 1000000 nM) was 100.30% and 98.80% and 100.85%. The inhibition at 1000 µM (TMPRSS2; 212-148 1000000 nM) was 99.8%, the “Inhibition: TMPRSS2” value (TMPRSS2; 212-148 2000000 nM) was 100.85% and 100.05% and 100.27% and the inhibition at 2000 µM (TMPRSS2; 212-148 2000000 nM) was 99%. For the same molecule, the “Inhibition: CTSL” value (human CTSL; 212-148 0.0152588 nM, Fig. 5c) was 2.91% and -0.21% and -1.28% and 1.99%, the “Inhibition: CTSL” value (human CTSL; 212-148 0.0305176 nM, Fig. 5c) was 3.33% and -0.12% and 1.43% and -2.77% and the “Inhibition: CTSL” value (human CTSL; 212-148 0.0610352 nM, Fig. 5c) was -0.57% and 0.90% and 3.39% and -2.15%. The “Inhibition: CTSL” value (human CTSL; 212-148 0.12207 nM, Fig. 5c) was 9.01% and 2.36% and 0.90% and 3.32%, the “Inhibition: CTSL” value (human CTSL; 212-148 0.244141 nM, Fig. 5c) was 8.36% and 6.61% and 10.35% and the inhibition at 0.000244141 µM (human CTSL; 212-148 0.244141 nM, Fig. 5c) was 6.2%. For the same molecule, the “Inhibition: CTSL” value (human CTSL; 212-148 0.488281 nM, Fig. 5c) was 11.98% and 10.08% and 8.64%, the inhibition at 0.000488281 µM (human CTSL; 212-148 0.488281 nM, Fig. 5c) was 11.8% and the “Inhibition: CTSL” value (human CTSL; 212-148 0.976562 nM, Fig. 5c) was 27.34% and 25.99% and 25.66%. The inhibition at 0.000976562 µM (human CTSL; 212-148 0.976562 nM, Fig. 5c) was 23.1%, the “Inhibition: CTSL” value (human CTSL; 212-148 1.95312 nM, Fig. 5c) was 44.61% and 46.51% and 45.72% and the inhibition at 0.00195312 µM (human CTSL; 212-148 1.95312 nM, Fig. 5c) was 48%. The “Inhibition: CTSL” value (human CTSL; 212-148 3.90625 nM, Fig. 5c) was 71.05% and 70.57% and 71.92%, the inhibition at 0.00390625 µM (human CTSL; 212-148 3.90625 nM, Fig. 5c) was 73.5% and the “Inhibition: CTSL” value (human CTSL; 212-148 7.8125 nM, Fig. 5c) was 92.07% and 92.09% and 91.52%. The inhibition at 0.0078125 µM (human CTSL; 212-148 7.8125 nM, Fig. 5c) was 91.9%, the “Inhibition: CTSL” value (human CTSL; 212-148 15.625 nM, Fig. 5c) was 98.41% and 99.33% and 98.88% and the inhibition at 0.015625 µM (human CTSL; 212-148 15.625 nM, Fig. 5c) was 98.4%. For the same molecule, the “Inhibition: CTSL” value (human CTSL; 212-148 31.25 nM, Fig. 5c) was 100.04% and 99.69% and 99.78%, the inhibition at 0.03125 µM (human CTSL; 212-148 31.25 nM, Fig. 5c) was 99.8% and the “Inhibition: CTSL” value (human CTSL; 212-148 62.5 nM, Fig. 5c) was 100.21% and 99.82% and 99.78%. The inhibition at 0.0625 µM (human CTSL; 212-148 62.5 nM, Fig. 5c) was 100%, the “Inhibition: CTSL” value (human CTSL; 212-148 125 nM, Fig. 5c) was 100.33% and 100.36% and 100.30% and the inhibition at 0.125 µM (human CTSL; 212-148 125 nM, Fig. 5c) was 100%. The “Inhibition: CTSL” value (human CTSL; 212-148 250 nM, Fig. 5c) was 99.87% and 99.66% and 100.24%, the inhibition at 0.25 µM (human CTSL; 212-148 250 nM, Fig. 5c) was 100% and the “Inhibition: CTSL” value (human CTSL; 212-148 500 nM, Fig. 5c) was 100.03% and 100.68% and 99.61%. The inhibition at 0.5 µM (human CTSL; 212-148 500 nM, Fig. 5c) was 99.9%, the “Inhibition: CTSL” value (human CTSL; 212-148 1000 nM, Fig. 5c) was 100.34% and 99.76% and 100.32% and the inhibition at 1 µM (human CTSL; 212-148 1000 nM, Fig. 5c) was 99.5%. For the same molecule, the “Inhibition: CTSL” value (human CTSL; 212-148 2000 nM, Fig. 5c) was 100.56% and 99.97%, the inhibition at 2 µM (human CTSL; 212-148 2000 nM, Fig. 5c) was 99% and the IC50 (human CTSL; substrate Cbz-Phe-Arg-AMC, pH 5.5, mean ± SD, four replicates) was 2.13 nM. The “Inhibition: BA.2.12.1/Huh-7” value ([1]; 212-148 0.0002 μM, Fig. 5d) was 25.45% and 41.55%, the “Inhibition: BA.2.12.1/Huh-7” value ([1]; 212-148 0.002 μM, Fig. 5d) was 72.96% and 74.23% and the “Inhibition: BA.2.12.1/Huh-7” value ([1]; 212-148 0.02 μM, Fig. 5d) was 77.85% and 80.42%. The “Inhibition: BA.2.12.1/Huh-7” value ([1]; 212-148 0.2 μM, Fig. 5d) was 82.33% and 85.32%, the “Inhibition: BA.2.12.1/Huh-7” value ([1]; 212-148 2 μM, Fig. 5d) was 85.90% and 86.81% and the “Inhibition: BA.2.12.1/Huh-7” value ([1]; 212-148 20 μM, Fig. 5d) was 92.77% and 92.47%. The inhibition at 0.0002 µM ([1]; Severe acute respiratory syndrome coronavirus 2, Huh-7, 120 h, 212-148 0.0002 μM, Fig. 5d) was 26.2%, the inhibition at 0.002 µM ([1]; Severe acute respiratory syndrome coronavirus 2, Huh-7, 120 h, 212-148 0.002 μM, Fig. 5d) was 70.2% and the inhibition at 0.02 µM ([1]; Severe acute respiratory syndrome coronavirus 2, Huh-7, 120 h, 212-148 0.02 μM, Fig. 5d) was 75.2%. It also gave an inhibition at 0.2 µM ([1]; Severe acute respiratory syndrome coronavirus 2, Huh-7, 120 h, 212-148 0.2 μM, Fig. 5d) of 82.3%, an inhibition at 2 µM ([1]; Severe acute respiratory syndrome coronavirus 2, Huh-7, 120 h, 212-148 2 μM, Fig. 5d) of 86.3% and an inhibition at 20 µM ([1]; Severe acute respiratory syndrome coronavirus 2, Huh-7, 120 h, 212-148 20 μM, Fig. 5d) of 91.6%. The EC50 ([1]; Severe acute respiratory syndrome coronavirus 2, Huh-7, read-out: Antiviral efficacy EC50 (95% CI)) was 0.4 nM.

— paper PMC10663540, “Structure-based discovery of dual pathway inhibitors for SARS-CoV-2 entry” (Nature Communications, 2023)
